The text below walks through data of patent publication US6309882A, “Antisense inhibition of replication protein a p70 subunit” (ISIS Pharmaceuticals, Inc., priority 1999, dated 2001).

The data set relates to SW480 cells. Description: Tumor cell survival, cell number by hemocytometer. In kind it is cell-based, human. The conditions noted are these: SW480, 400 nM, 72 hours. On the procedure:
To determine the effects of ISIS 12790 on tumor cell survival, T24, A549, Mia Paca II, and SW480 cells were treated with either ISIS 12790 or ISIS 13706 (a 20-mer with identical nucleotide composition but containing 7 mismatches relative to the target) and surviving cells counted 72 hours later.
For experiments where cell number was measured directly by hemocytometer, cells were plated in six well dishes 24 hr prior to the experiment and transfected at approximately 50-70% confluency with various phosphorothioate oligonucleotides at 400 nM, as described above. Following a single transfection, the cells were allowed to recover 72 hours. After 72 hr the cells were washed, trypsinized, and cell number was determined by hemocytometer. For each experiment, treatments were performed in triplicate wells. The number of cells corresponding to each well was determined twice.
Statistical analysis of mRNA levels and cell survival data were performed using BMDP Statistical package, Version 7.0 (BMDP Statistical Software, Inc., Los Angeles, Calif.). Data were subjected to ANOVA and the results were expressed in terms of F-values, t-values, and significance. For cell survival data, analyses included repeated measurements with 3 between factors (drug, concentration, and position). For mRNA levels only the 3 between factors were considered. Global comparisons were performed with F-tests and pairwise comparisons with t-tests. In each case, since there was no interaction with position, results were pooled and analyzed with two between factors (drug and concentration). Treatment with ISIS 12790 was associated with decreased cell number in all four tumor cell lines (see Table 4). The decrease in cell number observed in T24 cells was 79%. The decrease observed in the other three cell lines was: A549, 98% decrease; Mia Paca II, 85% decrease; SW480, 81% decrease.

“ISIS 12790: phosphorothioate oligodeoxynucleotide TGGTCTGCAGTTAGGGTCAG, SEQ ID NO 15, 3'-UTR 2230-2249, non-allele specific (DNA, all phosphorothioate, methylation of C not given here)”: the “% Cell Killing” value was determined as 81%, the “% Cell Survival” value is 19% and the “decrease in cell number” value amounted to 81%.
